Where a name gives a salt, the structure may show the parent alone.
Columns and labels:
Type in all cases: physicochemical
[1] = Solubility determination of ractopamine HCl in liquid agents (visual, 1-dram vials)
Experimental: Solubility determinations are performed in 1-dram vials. Add ractopamine HCl to a vial containing a liquid agent to give a final w/w ratio of 10% ractopamine HCl to liquid agent. Mix the solution vigorously on a vortex mixer for 2 to 6 minutes. After the mixing period, visually, assess whether the ractopamine dissolves in the liquid agent or whether insoluble material (cloudy solution or two distinct phases) remains in the vial. If the solubility is less than 10%, add additional liquid agent to dilute the ractopamine HCl to a 5-8% range. Repeat the mixing procedure and assess whether the ractopamine is soluble in the liquid agent or whether it remains insoluble at the lower concentration. Apply heat (from room temperature up to 60° C.) as needed to aid solubilization. Allow heated samples to cool to room temperature to assess solubility by visual observation for precipitant or cloudiness.

[2] = Chemical stability on storage: related substances by chromatogram comparison
[3] = Physical stability on storage (precipitation / remaining in solution); conditions: for Comment: physical stability on storage: 10% ractopamine; for physical stability on storage: 5° C. storage
[4] = Solubility of ractopamine (water, PG, PEG vehicle systems)

## CC(CCc1ccc(O)cc1)NCC(O)c1ccc(O)cc1 (stereo not drawn) [ractopamine HCl]
[1]; 1,3 Dioxolane
  Solubility @ RT: <5%
[1]; 1-Butanol
  Solubility @ RT: <10%
[1]; 1-Methyl-2-Pyrrolidinone (Pharmasolve)
  Solubility @ RT: <5%
[1]; 2-Pyrrolidone (2-Pyrol)
  Solubility @ RT: ≦5%
[1]; 4-Methyl-1-3Dioxolane
  Solubility @ RT: <5%
[1]; Acetaldehyde Phenethyl Propyl Acetal (Acetal R)
  Solubility @ RT: <10%
[1]; Acetic Acid Glacial (50% solution)
  Solubility @ RT: ≧10%
[1]; Acetone
  Solubility @ RT: <10%
[1]; Acetophenone
  Solubility @ RT: <10%
[1]; Agrimax 3 (2-pyrrolidinone, 1-Octyl 2-Pyrrolidinone, 1-Ethenylhexadecyl-, Homopolymer Sulfuric Acid Monododecyl Ester Sodium Salt)
  Solubility @ RT: <5%
[1]; AgsolEx 8
  Solubility @ RT: <5%
[1]; Amyl Acetate
  Solubility @ RT: <5%
[1]; Aromatic 100
  Solubility @ RT: <5%
[1]; Aromatic 200 (SC Solvent 200)
  Solubility @ RT: <5%
[1]; Benzoic Acid (0.3% solution)
  Solubility @ RT: <10%
[1]; Benzyl Alcohol
  Solubility @ RT: ≧5%
[1]; Block Copolymer Pluronic L31
  Solubility @ RT: ≦10%
[1]; Block Copolymer Pluronic L61, 50/50 water
  Solubility @ RT: ≧10%
[1]; Block Copolymer Pluronic L61, Neat (Viscous)
  Solubility @ RT: ≦10%
[1]; Caprylic/Capric Triglycerides, BP, FP (Labrafac CC)
  Solubility @ RT: <5%
[1]; Caprylic/capric triglyceride (Migylol 810)
  Solubility @ RT: <8%
[1]; Centrapour Clear Fry Oil
  Solubility @ RT: <5%
[1]; Citric Acid (50% solution)
  Solubility @ RT: <5%
[1]; Corn Oil (Mazzola)
  Solubility @ RT: <8%
[1]; Cyclohexanone
  Solubility @ RT: <10%
[1]; D-Gluconic Acid
  Solubility @ RT: <10%
[1]; D-Glucuronic Acid (20% solution)
  Solubility @ RT: <5%
[1]; Dichloromethane
  Solubility @ RT: <10%
[1]; Diethylene Glycol
  Solubility @ RT: ≧10%
[1]; Diethylenetriamine (DETA)
  Solubility @ RT: ≧10%
[1]; Dimethyl Isosorbide
  Solubility @ RT: <8%
[1]; Dipropylene glycol n-butyl ether
  Solubility @ RT: <10%
[1]; Ethanolamine
  Solubility @ RT: ≧10%
[1]; Ethyl Acetate
  Solubility @ RT: <5%
[1]; Ethyl Alcohol
  Solubility @ RT: <10%
[1]; Ethyl Lactate
  Solubility @ RT: <5%
[1]; Ethylene Glycol
  Solubility @ RT: ≧10%
[1]; Ethylenediamine
  Solubility @ RT: ≧20%
[1]; Forward DC
  Solubility @ RT: <5%
[1]; Fumaric Acid
  Solubility @ RT: <5%
[1]; Gamma Butylactone
  Solubility @ RT: <5%
[1]; Glutamic Acid (20% solution)
  Solubility @ RT: <5%
[1]; Glycerol Formal
  Solubility @ RT: ≦5%
[1]; Glyceryl and polyethylene glycol esters (Labrasol)
  Solubility @ RT: <5%
[1]; Glycol Ether PM
  Solubility @ RT: <5%
[1]; Hexane
  Solubility @ RT: <5%
[1]; Hydroxypropyl β-Cyclodextrin (Trappsol)
  Solubility @ RT: <10%
[1]; Isophorone
  Solubility @ RT: <10%
[1]; Isopropyl Myristrate (Emerest 2314)
  Solubility @ RT: <8%
[1]; L-Malic Acid (20% solution)
  Solubility @ RT: <5%
[1]; L-Tartaric Acid 20% solution
  Solubility @ RT: <5%
[1]; Lactic Acid (85% solution)
  Solubility @ RT: ≦10%
[1]; Maleic Acid (20% Solution)
  Solubility @ RT: ≦10%
[1]; Malonic Acid
  Solubility @ RT: ≧5%
[1]; Medium chain triglyceride (Migylol 812)
  Solubility @ RT: <8%
[1]; Methanol
  Solubility @ RT: ≧10%
[1]; Methyl Caprylate-Caprate (Emery 2209)
  Solubility @ RT: <8%
[1]; Methyl Oleate (Emery 2301)
  Solubility @ RT: <8%
[1]; Mineral Oil, QA246U
  Solubility @ RT: <5%
[1]; Mono-diglyceride of caprylic/capric fatty acids (Capmul MCM)
  Solubility @ RT: <8%
[1]; Monomethylated Polyethylene Glycol MPEG 350, 50/50 water
  Solubility @ RT: ≧10%
[1]; Monomethylated Polyethylene Glycol MPEG 350, Neat
  Solubility @ RT: ≦10%
[1]; Monomethylated Polyethylene Glycol MPEG 550, 50/50 water
  Solubility @ RT: ≧10%
[1]; Monomethylated Polyethylene Glycol MPEG 550, Neat
  Solubility @ RT: ≦10%
[1]; N,N, Dimethylacetamide
  Solubility @ RT: <5%
[1]; Nonylphenol Ethoxylate, POE-10 (Makon 10)
  Solubility @ RT: <5%
[1]; Oleic Acid (Priolene 6933)
  Solubility @ RT: <5%
[1]; Oleoyl Macrogolglycerides EP (Labrafil M 1944 CS)
  Solubility @ RT: <5%
[1]; PCO to water 50:50 w/w
  solubility: greater than 10%
[1]; PSO to water 50:50 w/w
  solubility: greater than 10%
[1]; Petroleum Ether
  Solubility @ RT: <5%
[1]; Petroleum distillates (naphtha), Panasol AN-2K
  Solubility @ RT: <5%
[1]; Phosphoric Acid (85% Solution)
  Solubility @ RT: <5%
[1]; Polyethylene Glycol Dimethyl Ether (DMPEG-350)
  Solubility @ RT: <5%
[1]; Polyethylene Glycol PEG 200, 50/50 water
  Solubility @ RT: ≧10%
[1]; Polyethylene Glycol PEG 200, Neat
  Solubility @ RT: ≦10%
[1]; Polyethylene Glycol PEG 300, 50/50 water
  Solubility @ RT: ≧10%
[1]; Polyethylene Glycol PEG 300, Neat
  Solubility @ RT: ≦10%
[1]; Polyethylene Glycol PEG 400, Neat (Viscous)
  Solubility @ RT: ≦10%
[1]; Polyglycol P-2000
  Solubility @ RT: <5%
[1]; Polyoxyethylene-20-Sorbitan Monolaurate (Tween 20), 50/50 water
  Solubility @ RT: ≧10%
[1]; Polyoxyethylene-20-Sorbitan Monolaurate (Tween 20), Neat (Viscous)
  Solubility @ RT: ≦10%
[1]; Polyoxyethylene-20-Sorbitan Monooleate (Tween 80), 50/50 water
  Solubility @ RT: ≧10%
[1]; Polyoxyethylene-20-Sorbitan Monooleate (Tween 80), Neat (Viscous)
  Solubility @ RT: ≦10%
[1]; Polyoxyl 35 Castor Oil (Cremophor EL), 50/50 water
  Solubility @ RT: ≧10%
[1]; Polyoxyl 35 Castor Oil (Cremophor EL), Neat (Viscous)
  Solubility @ RT: ≦10%
[1]; Propionic Acid (20% solution)
  Solubility @ RT: ≧10%
[1]; Propylene Carbonate
  Solubility @ RT: <5%
[1]; Propylene Glycol Laurate (Lauroglycol FCC)
  Solubility @ RT: <5%
[1]; Propylene glycol diester of caprylic/capric acid (Migylol 840)
  Solubility @ RT: <8%
[1]; Soybean Oil Methyl Ester (Soy Gold 2000)
  Solubility @ RT: <8%
[1]; Succinic Acid (5% Solution)
  Solubility @ RT: <5%
[1]; Sunflower Oil (Wesson)
  Solubility @ RT: <8%
[1]; Tetrahydrfurfuryl Alcohol (THFA)
  Solubility @ RT: ≦10%
[1]; Tetrahydrofuran (THF)
  Solubility @ RT: <10%
[1]; Toulene
  Solubility @ RT: <10%
[1]; Triacetin
  Solubility @ RT: <5%
[1]; Trichloroethylene
  Solubility @ RT: <10%
[1]; Triglyceride of caprylic/capric and succinic acid (Migylol 829)
  Solubility @ RT: <8%
[1]; β-Cyclodextrin Sulfbutyl Ether 7 Sodium Salt 20% Solution (Captisol)
  Solubility @ RT: <10%
[2]; Acetic Acid Glacial (50% solution), buffered 10% formulation, generation of new related subs in stability storage
  Comment: stability: Stability discontinued
[2]; Lactic Acid (85% solution), 10% formulation by heating and buffering pH, generation of new related subs in stability storage
  Comment: stability: Stability discontinued
[2]; MPEG solvents (MPEG 350, 550)
  Comment: new related sub peaks in stability studies: number of new related sub
[2]; Methanol, forms methoxy ractopamine related substance
  Comment: reaction with solvent: Methanol reacts with
[2]; PEG solvents (PEG 200, 300)
  Comment: new related sub peaks in stability studies: number of new related sub
[2]; Pluronic L61 to water at 50/50, 10% ractopamine
  Comment: new related substance peaks in stability studies: a number of new related
[2]; Propionic Acid (20% solution), generated a number of large related sub peaks
  Comment: stability: Stability discontinued -
[3]; Polyoxyethylene 20 Sorbitan Monolaurate to water below 50/50, prolonged storage at 5° C.
  Comment: physical stability on storage: below 50/50 precipitate after
[3]; Polyoxyethylene-20-Sorbitan Monooleate to water below 50/50, prolonged storage at 5° C.
  Comment: physical stability on storage: below 50/50 precipitate after
[3]; Polyoxyl 35 Castor Oil to water at 50/50, short term (3 months) storage at 5° C.
  Comment: physical stability on storage: somewhat viscous and precipitate

## CC(CCc1ccc(O)cc1)NCC(O)c1ccc(O)cc1 (stereo not drawn) [ractopamine]
[1]; PSL to water 50:50 w/w
  solubility: greater than 10%
[2]; PEG 200 / PEG 300 vehicle, not reversible under normal storage conditions
  reaction with solvent: form covalently bonded related substances
[2]; aqueous PSL vehicle, storage up to 24 months at 25° C. and 12 months at 40° C.
  new related substances: < 0.2%
[2]; aqueous PSO vehicle, storage up to 24 months at 25° C.
  new related substances: < 0.2%
[2]; propylene glycol solutions, normal room temperature (~25° C.)
  formation of new related substances during storage: new related substances form slowly
[4]; 100% propylene glycol (PG) or aqueous vehicle system containing PG
  solubility: > 25 % w/w
[4]; vehicle 50% PG and 50% water, 25° C.
  solubility (capable of dissolving): at least 10%
[4]; vehicle system containing PEG 200, PEG 300, or both
  concentration achievable in solution: > 20%
[3]; 10% ractopamine formulations, PSO to water below 50/50 w/w
  physical stability on storage: precipitate out
[3]; Ten percent ractopamine formulations, PCO to water below 50/50 w/w
  physical stability on storage: precipitate out

From patent US7943670B2, “Liquid formulations of ractopamine” (Eli Lilly and Company, priority 2004, dated 2011)
